Experimental data published in patent US20100168053A1, “ORAL DELIVERY SYSTEM FOR METHYLCOBALAMIN TO TREAT DISORDERS” (REVITAPOP, priority 2008, published 2010).

Experiment: Onset and duration of effect of methylcobalamin administration (subject reports, QEEG)
Format: in vivo, human
Conditions: varies between persons
Description: In a person responsive to methylcobalamin, the effects of methylcobalmin administered nasally may begin to occur within minutes of administration. […] In various experiments, subjects reported feeling better in minutes and sometimes seconds. Thus, improvements can occur within the first hour of administration.
Although the effects of a typical administration can last about 24 hours, every person is different. Thus, some people can become depleted of available methylcobalamin in hours or less, while others can feel the benefits for days. The dosage and frequency of methylcobalamin administration can decrease over time, particularly with changing lifestyle or eating habits. For example, reducing intake of milk and wheat products, complex carbohydrates and starches, and improvements to intestinal flora may reduce the need for methylcobalamin.

## C/C1=C2/[N-][C@H]([C@H](CC(N)=O)[C@@]2(C)CCC(=O)NC[C@@H](C)OP(=O)([O-])O[C@H]2[C@@H](O)[C@@H](n3cnc4cc(C)c(C)cc43)O[C@@H]2CO)[C@]2(C)N=C(/C(C)=C3N=C(/C=C4N=C1[C@@H](CCC(N)=O)C\4(C)C)[C@@H](CCC(N)=O)[C@]\3(C)CC(N)=O)[C@@H](CCC(N)=O)[C@]2(C)CC(N)=O.[CH3-].[Co+3] [methylcobalamin]
  duration of effects of a typical administration: about 24 hours
